Results as given in patent publication US20220372017A1, “HCK DEGRADERS AND USES THEREOF” (DANA-FARBER CANCER INSTITUTE, INC., priority 2019, published 2022).

How the values were obtained:
Format in all cases: cell-based
HCK = target: T1, HCK (Homo sapiens, UniProt P08631); assay: Western blot protein degradation assessment, HCK
T1 construct: following treatment of MYD88 mutated BCWM.1 cells; endogenous in cells; host or cells: BCWM.1 WM cells (parental and vector/BTK-WT/BTK-C481S transduced); TMD8 ABC-DLBCL cells (transduced)
Procedure: (§1) SK-6-1 was used as a degrader control compound.
(§2) SK-6-1 was used as a degrader control compound. […] “ABC-DLBCL” is activated B-cell (ABC) lymphoma, diffuse large B-cell lymphoma (DLBCL).
(§3) Western blots were performed for the detection of protein degradation following the cell treatments with HCK degraders using antibodies for HCK (Cell Signaling), BTK (Cell Signaling) or Phospho-BTK (Tyr223) (Abcam). GAPDH was used for determination of protein loading.

BTK [1] = target: T2, BTK (Homo sapiens, UniProt Q06187); assay: Western blot protein degradation assessment, BTK; conditions: MYD88 mutated BCWM.1 cells, 6 hours, Western blot (FIG. 4)
T2 construct: following treatment of MYD88 mutated BCWM.1 cells; endogenous in cells
T2 sequence (Q06187 2-659): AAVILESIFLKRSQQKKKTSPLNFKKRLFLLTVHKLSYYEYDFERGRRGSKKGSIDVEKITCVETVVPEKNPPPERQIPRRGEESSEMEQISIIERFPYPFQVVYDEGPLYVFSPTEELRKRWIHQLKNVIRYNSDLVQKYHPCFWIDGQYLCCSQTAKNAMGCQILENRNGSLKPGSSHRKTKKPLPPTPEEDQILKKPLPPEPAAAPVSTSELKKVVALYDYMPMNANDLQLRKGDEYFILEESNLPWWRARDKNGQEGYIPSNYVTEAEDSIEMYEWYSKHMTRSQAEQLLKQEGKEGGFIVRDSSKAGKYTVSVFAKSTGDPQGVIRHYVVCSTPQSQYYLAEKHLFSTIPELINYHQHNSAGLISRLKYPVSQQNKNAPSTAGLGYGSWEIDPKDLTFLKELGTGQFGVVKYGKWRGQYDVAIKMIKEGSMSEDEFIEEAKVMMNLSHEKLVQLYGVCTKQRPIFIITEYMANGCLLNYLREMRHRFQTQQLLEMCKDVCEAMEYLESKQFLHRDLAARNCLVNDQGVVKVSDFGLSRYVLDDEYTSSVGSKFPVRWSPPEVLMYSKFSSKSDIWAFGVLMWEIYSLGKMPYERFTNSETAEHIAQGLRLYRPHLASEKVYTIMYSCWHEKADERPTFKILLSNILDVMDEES
Procedure: as §1, §2, §3

FYN = target: T3, FYN (Homo sapiens, UniProt P06241); assay: Proteomics, degradation of target kinases in MOLT4 cells: FYN; conditions: cell line MOLT4 (FIGS. 7A-7B)
T3 construct: proteomics data on the degradation of target kinases in cell line MOLT4; endogenous in cells; host or cells: MOLT4
T3 sequence (P06241 whole entry): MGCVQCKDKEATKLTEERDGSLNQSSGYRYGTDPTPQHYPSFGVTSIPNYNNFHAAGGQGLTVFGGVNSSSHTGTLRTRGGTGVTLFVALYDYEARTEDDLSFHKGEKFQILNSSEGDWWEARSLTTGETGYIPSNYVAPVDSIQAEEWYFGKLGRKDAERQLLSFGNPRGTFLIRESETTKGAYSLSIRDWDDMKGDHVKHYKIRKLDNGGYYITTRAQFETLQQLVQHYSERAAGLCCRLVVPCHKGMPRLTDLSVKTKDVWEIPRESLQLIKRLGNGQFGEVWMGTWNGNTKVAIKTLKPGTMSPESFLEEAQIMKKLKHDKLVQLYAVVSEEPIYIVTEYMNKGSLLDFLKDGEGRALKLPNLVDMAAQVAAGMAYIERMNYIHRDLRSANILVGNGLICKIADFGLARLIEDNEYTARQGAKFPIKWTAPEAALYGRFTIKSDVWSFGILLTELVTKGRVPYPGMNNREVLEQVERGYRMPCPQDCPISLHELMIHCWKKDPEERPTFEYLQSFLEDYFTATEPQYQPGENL
Excerpt: (§4) FIGS. 7A-7B show proteomics data on the degradation of target kinases in cell line MOLT4 (human T lymphoblast; acute lymphoblastic leukemia) using treatment with exemplary compounds SB1-G-181 and SB1-G-200. FIG. 7A indicates in the bottom left corner the exemplary kinase targets (FYN, SRC, BLK, LCK, CSK, ABL1, ABL2, LIMK1, LATS1) in cell line MOLT4 which were degraded by exemplary compound SB1-G-181. FIG. 7B indicates in the bottom left corner the exemplary kinase targets (FYN, SRC, BLK, LCK, CSK, ABL1, ABL2, LIMK1, LATS1) in cell line MOLT4 which were degraded by exemplary compound SB1-G-200.

SRC = target: T4, SRC (Homo sapiens, UniProt P12931); assay: Proteomics, degradation of target kinases in MOLT4 cells: SRC; conditions: cell line MOLT4 (FIGS. 7A-7B)
T4 construct: proteomics data on the degradation of target kinases in cell line MOLT4; endogenous in cells; host or cells: MOLT4
T4 sequence (P12931 whole entry): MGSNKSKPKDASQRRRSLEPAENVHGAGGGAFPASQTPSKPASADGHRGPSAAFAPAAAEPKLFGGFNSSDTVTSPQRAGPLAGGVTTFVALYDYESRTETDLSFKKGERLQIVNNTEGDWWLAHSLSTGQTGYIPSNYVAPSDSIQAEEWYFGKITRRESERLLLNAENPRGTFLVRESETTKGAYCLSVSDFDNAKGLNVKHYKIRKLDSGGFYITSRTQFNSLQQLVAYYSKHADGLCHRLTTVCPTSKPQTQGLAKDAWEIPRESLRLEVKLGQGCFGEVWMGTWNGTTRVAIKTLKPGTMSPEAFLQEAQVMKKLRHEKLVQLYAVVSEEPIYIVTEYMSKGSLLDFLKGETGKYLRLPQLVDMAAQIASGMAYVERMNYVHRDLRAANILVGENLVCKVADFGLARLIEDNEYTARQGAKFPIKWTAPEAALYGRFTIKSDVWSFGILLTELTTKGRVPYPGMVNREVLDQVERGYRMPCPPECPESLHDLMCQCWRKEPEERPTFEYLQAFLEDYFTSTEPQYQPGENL
Excerpt: as §4

BLK = target: T5, BLK (Homo sapiens, UniProt P51451); assay: Proteomics, degradation of target kinases in MOLT4 cells: BLK; conditions: cell line MOLT4 (FIGS. 7A-7B)
T5 construct: proteomics data on the degradation of target kinases in cell line MOLT4; endogenous in cells; host or cells: MOLT4
T5 sequence (P51451 whole entry): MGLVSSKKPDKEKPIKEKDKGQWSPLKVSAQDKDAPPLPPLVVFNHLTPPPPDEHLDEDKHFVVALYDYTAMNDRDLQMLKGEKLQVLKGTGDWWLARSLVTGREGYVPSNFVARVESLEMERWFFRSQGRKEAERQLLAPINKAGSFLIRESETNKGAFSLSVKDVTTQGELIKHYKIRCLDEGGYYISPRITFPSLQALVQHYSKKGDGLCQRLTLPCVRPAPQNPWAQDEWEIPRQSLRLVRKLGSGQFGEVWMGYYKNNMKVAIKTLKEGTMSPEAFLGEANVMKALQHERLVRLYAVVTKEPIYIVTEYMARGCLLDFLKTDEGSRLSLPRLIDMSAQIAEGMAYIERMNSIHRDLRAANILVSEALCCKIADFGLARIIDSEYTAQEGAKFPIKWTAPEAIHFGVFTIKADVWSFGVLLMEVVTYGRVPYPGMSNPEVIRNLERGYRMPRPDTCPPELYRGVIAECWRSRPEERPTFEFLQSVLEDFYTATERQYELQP
Excerpt: as §4

LCK = target: T6, LCK (Homo sapiens, UniProt P06239); assay: Proteomics, degradation of target kinases in MOLT4 cells: LCK; conditions: cell line MOLT4 (FIGS. 7A-7B)
T6 construct: proteomics data on the degradation of target kinases in cell line MOLT4; endogenous in cells; host or cells: MOLT4
T6 sequence (P06239 whole entry): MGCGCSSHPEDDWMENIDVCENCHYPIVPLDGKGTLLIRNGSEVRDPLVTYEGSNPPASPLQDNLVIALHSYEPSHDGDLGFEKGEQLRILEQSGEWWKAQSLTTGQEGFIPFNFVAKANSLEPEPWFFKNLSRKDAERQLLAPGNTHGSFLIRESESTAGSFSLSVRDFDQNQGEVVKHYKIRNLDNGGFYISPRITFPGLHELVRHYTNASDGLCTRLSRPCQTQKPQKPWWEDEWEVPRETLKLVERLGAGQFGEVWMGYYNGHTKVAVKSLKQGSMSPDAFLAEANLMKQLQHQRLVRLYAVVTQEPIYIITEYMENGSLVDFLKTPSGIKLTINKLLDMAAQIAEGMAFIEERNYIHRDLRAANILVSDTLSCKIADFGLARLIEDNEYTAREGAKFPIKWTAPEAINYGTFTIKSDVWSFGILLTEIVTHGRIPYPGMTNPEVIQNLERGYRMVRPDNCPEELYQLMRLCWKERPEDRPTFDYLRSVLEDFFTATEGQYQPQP
Excerpt: as §4

CSK = target: T7, CSK (Homo sapiens, UniProt P41240); assay: Proteomics, degradation of target kinases in MOLT4 cells: CSK; conditions: cell line MOLT4 (FIGS. 7A-7B)
T7 construct: proteomics data on the degradation of target kinases in cell line MOLT4; endogenous in cells; host or cells: MOLT4
T7 sequence (P41240 whole entry): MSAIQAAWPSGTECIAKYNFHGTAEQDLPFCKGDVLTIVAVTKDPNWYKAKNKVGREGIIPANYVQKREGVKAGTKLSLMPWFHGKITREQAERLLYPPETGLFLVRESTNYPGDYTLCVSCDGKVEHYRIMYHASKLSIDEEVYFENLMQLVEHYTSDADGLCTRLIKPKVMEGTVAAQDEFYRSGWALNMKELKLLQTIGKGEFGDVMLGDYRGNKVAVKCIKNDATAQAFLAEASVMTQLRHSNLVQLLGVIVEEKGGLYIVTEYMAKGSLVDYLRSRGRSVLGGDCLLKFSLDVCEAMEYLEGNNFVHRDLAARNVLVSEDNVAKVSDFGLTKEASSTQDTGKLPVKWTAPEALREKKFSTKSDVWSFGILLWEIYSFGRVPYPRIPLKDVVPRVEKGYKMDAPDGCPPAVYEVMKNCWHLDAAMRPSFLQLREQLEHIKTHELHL
Excerpt: as §4

ABL1 = target: T8, ABL1 (Homo sapiens, UniProt P00519); assay: Proteomics, degradation of target kinases in MOLT4 cells: ABL1; conditions: cell line MOLT4 (FIGS. 7A-7B)
T8 construct: proteomics data on the degradation of target kinases in cell line MOLT4; endogenous in cells; host or cells: MOLT4
T8 sequence (P00519 whole entry): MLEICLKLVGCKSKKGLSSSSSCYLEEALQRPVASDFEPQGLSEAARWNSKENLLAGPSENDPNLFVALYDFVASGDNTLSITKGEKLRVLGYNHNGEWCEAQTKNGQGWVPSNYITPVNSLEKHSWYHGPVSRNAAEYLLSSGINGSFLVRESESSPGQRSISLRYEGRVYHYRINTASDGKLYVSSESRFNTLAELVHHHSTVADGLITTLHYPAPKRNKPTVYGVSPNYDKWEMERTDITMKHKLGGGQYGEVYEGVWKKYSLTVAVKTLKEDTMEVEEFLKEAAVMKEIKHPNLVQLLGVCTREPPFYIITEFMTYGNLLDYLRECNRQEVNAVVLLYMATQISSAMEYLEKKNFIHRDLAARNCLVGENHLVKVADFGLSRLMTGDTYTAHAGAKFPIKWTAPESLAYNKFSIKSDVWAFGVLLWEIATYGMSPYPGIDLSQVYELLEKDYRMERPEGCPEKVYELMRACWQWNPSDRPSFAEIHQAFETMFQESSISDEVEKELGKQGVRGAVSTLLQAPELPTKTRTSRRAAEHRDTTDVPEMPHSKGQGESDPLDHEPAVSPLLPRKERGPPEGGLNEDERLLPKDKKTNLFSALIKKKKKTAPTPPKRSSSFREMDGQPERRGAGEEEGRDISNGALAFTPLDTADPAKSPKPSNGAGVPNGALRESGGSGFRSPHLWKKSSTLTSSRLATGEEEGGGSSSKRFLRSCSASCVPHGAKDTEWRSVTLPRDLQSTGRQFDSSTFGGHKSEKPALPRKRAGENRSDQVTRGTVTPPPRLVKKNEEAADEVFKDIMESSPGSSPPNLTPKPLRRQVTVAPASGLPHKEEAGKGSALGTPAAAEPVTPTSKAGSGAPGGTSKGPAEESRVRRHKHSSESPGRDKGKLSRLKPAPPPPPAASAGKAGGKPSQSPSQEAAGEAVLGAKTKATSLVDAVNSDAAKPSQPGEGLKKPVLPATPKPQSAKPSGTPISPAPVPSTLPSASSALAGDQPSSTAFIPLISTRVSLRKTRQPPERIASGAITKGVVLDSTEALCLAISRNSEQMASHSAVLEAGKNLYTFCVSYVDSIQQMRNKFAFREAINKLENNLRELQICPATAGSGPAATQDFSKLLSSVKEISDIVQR
Excerpt: as §4

ABL2 = target: T9, ABL2 (Homo sapiens, UniProt P42684); assay: Proteomics, degradation of target kinases in MOLT4 cells: ABL2; conditions: cell line MOLT4 (FIGS. 7A-7B)
T9 construct: proteomics data on the degradation of target kinases in cell line MOLT4; endogenous in cells; host or cells: MOLT4
Excerpt: as §4

LIMK1 = target: T10, LIMK1 (Homo sapiens, UniProt P53667); assay: Proteomics, degradation of target kinases in MOLT4 cells: LIMK1; conditions: cell line MOLT4 (FIGS. 7A-7B)
T10 construct: proteomics data on the degradation of target kinases in cell line MOLT4; endogenous in cells; host or cells: MOLT4
T10 sequence (P53667 whole entry): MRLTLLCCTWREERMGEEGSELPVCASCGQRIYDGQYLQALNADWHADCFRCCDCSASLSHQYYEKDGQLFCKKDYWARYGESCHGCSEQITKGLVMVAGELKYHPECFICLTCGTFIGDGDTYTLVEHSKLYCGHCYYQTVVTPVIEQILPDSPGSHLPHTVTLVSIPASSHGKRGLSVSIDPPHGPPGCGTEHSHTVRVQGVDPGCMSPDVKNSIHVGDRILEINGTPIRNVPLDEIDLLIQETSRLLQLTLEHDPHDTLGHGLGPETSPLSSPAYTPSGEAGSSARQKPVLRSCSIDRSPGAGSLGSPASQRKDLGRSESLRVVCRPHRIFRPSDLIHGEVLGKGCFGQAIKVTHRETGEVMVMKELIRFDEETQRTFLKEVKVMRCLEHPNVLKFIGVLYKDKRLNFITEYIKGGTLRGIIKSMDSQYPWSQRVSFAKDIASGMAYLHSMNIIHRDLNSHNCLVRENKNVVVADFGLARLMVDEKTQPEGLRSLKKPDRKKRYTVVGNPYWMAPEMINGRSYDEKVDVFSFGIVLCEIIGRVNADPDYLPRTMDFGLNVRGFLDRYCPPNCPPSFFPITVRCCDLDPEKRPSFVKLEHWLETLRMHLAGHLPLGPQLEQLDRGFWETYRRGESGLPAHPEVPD
Excerpt: as §4

LATS1 = target: T11, LATS1 (Homo sapiens, UniProt O95835); assay: Proteomics, degradation of target kinases in MOLT4 cells: LATS1; conditions: cell line MOLT4 (FIGS. 7A-7B)
T11 construct: proteomics data on the degradation of target kinases in cell line MOLT4; endogenous in cells; host or cells: MOLT4
T11 sequence (O95835 1-1130): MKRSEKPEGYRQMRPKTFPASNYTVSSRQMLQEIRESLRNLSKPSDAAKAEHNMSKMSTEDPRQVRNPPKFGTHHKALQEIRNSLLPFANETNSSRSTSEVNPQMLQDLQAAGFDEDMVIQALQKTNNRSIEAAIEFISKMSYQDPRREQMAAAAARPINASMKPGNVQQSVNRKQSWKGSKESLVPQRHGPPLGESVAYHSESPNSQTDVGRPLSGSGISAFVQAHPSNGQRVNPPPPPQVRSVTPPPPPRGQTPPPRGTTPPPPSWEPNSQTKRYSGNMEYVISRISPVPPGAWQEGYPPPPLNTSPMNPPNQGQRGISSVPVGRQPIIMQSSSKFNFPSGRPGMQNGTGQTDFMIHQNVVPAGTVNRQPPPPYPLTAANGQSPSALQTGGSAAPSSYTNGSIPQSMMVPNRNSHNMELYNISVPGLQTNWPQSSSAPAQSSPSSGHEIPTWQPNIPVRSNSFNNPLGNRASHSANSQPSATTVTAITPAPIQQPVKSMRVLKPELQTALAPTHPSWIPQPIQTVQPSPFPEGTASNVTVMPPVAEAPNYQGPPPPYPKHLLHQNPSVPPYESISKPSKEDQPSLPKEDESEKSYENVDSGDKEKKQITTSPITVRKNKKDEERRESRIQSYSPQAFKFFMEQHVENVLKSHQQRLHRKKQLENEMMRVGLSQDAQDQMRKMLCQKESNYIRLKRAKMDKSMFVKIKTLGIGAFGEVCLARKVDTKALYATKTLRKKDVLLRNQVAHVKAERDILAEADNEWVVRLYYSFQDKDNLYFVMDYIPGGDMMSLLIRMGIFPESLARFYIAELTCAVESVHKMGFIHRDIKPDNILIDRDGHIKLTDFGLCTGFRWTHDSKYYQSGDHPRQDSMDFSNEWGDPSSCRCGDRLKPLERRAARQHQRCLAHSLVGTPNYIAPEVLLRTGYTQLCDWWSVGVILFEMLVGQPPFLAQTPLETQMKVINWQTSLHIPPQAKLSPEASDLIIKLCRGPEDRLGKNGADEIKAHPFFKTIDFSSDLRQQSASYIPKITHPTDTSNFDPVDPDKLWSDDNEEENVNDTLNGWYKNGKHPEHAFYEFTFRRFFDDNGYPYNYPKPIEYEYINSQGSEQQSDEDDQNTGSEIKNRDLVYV
Excerpt: as §4

BTK [2] = target: T12, BTK (Homo sapiens, UniProt Q06187, C481S); assay: Western blot protein degradation assessment, BTK; conditions: BTK^C481S mutant transduced BCWM.1 WM cells, 6 hours (FIG. 5)
T12 construct: following treatment of MYD88 mutated BCWM.1 cells; endogenous in cells
T12 sequence (Q06187 2-659 C481S): as the sequence (Q06187 2-659) above, with C480S counted along it
Procedure: as §1, §2, §3

BTK [3] = assay: Western blot protein degradation assessment, BTK; conditions: vector only, BTK^WT or BTK^C481S transduced TMD8 ABC-DLBCL cells, 6 hours (FIG. 6)
Procedure: as §1, §2, §3

Phospho-BTK (Tyr223) = assay: Western blot, Phospho-BTK (Tyr223); conditions: vector only
Procedure: as §1, §2, §3

[4] = MYD88 mutated BCWM.1 cells, 6 hours, Western blot (FIG. 4)

Row | SMILES | degradation of HCK (HCK; [4]) | degradation of BTK (BTK [1]) | degradation of FYN (proteomics) (FYN) | degradation of SRC (proteomics) (SRC) | degradation of BLK (proteomics) (BLK) | degradation of LCK (proteomics) (LCK) | degradation of CSK (proteomics) (CSK) | degradation of ABL1 (proteomics) (ABL1) | degradation of ABL2 (proteomics) (ABL2) | degradation of LIMK1 (proteomics) (LIMK1) | degradation of LATS1 (proteomics) (LATS1) | degradation of HCK (HCK; vector only, BTK^WT or BTK^C481S transduced BCWM.1 WM cells, 6 hours (FIG. 5)) | degradation of HCK (HCK; vector only, BTK^WT or BTK^C481S transduced TMD8 ABC-DLBCL cells, 6 hours (FIG. 6)) | degradation of BTK (BTK [2]) | degradation of BTK (BTK [3]) | BTK phosphorylation at Tyr-223 (Phospho-BTK (Tyr223); BTK^WT or BTK^C481S transduced BCWM.1 WM cells, 6 hours (FIG. 5)) | BTK phosphorylation at Tyr-223 (Phospho-BTK (Tyr223); BTK^WT or BTK^C481S transduced TMD8 ABC-DLBCL cells, 6 hours (FIG. 6))
1 | Nc1ncnc2c1c(-c1ccc(Oc3ccccc3)cc1)nn2[C@H]1CC[C@H](N2CCN(CCOCCOCCOCCNC(=O)CNc3cccc4c3C(=O)N(C3CCC(=O)NC3=O)C4=O)CC2)CC1 (stereo partly drawn) [SB1-G-182-P1] | effective degradation | effective degradation | – | – | – | – | – | – | – | – | – | – | – | – | – | – | –
2 | Nc1ncnc2c1c(-c1ccc(Oc3ccccc3)cc1)nn2[C@H]1CC[C@H](N2CCN(CCCCCCNC(=O)COc3cccc4c3C(=O)N(C3CCC(=O)NC3=O)C4=O)CC2)CC1 (stereo partly drawn) [SB1-G-200] | – | – | degraded | degraded | degraded | degraded | degraded | degraded | degraded | degraded | degraded | – | – | – | – | – | –
3 | Nc1ncnc2c1c(-c1ccc(Oc3ccccc3)cc1)nn2[C@H]1CC[C@H](N2CCN(CCOCCNC(=O)CNc3cccc4c3C(=O)N(C3CCC(=O)NC3=O)C4=O)CC2)CC1 (stereo partly drawn) [SB1-G-181, N-(2-(2-(4-((1r,4r)-4-(4-amino-3-(4-phenoxyphenyl)-1H-pyrazolo[3,4-d]pyrimidin-1-yl)cyclohexyl)piperazin-1-yl)ethoxy)ethyl)-2-(2-(2,6-dioxopiperidin-3-yl)-1,3-dioxoisoindolin-4-ylamino)acetamide] | – | – | degraded | degraded | degraded | degraded | degraded | degraded | degraded | degraded | degraded | – | – | – | – | – | –
4 | Nc1ncnc2c1c(-c1ccc(Oc3ccccc3)cc1)nn2[C@H]1CC[C@H](N2CCN(CCOCCOCCNC(=O)CNc3cccc4c3C(=O)N(C3CCC(=O)NC3=O)C4=O)CC2)CC1 (stereo partly drawn) [SB1-G-185-P1] | effective degradation | effective degradation | – | – | – | – | – | – | – | – | – | effective degradation | effective degradation | diminished | effective degradation | blocked | blocked
5 | Nc1ncnc2c1c(-c1ccc(Oc3ccccc3)cc1)nn2C1CCC(N2CCN(CCOCCNC(=O)CNc3cccc4c3C(=O)N(C3CCC(=O)NC3=O)C4=O)CC2)CC1 (stereo not drawn) [SB1-G-181-P1] | effective degradation | effective degradation | – | – | – | – | – | – | – | – | – | – | – | – | – | – | –
